According to patent US12662475B2, “Difluorocyclohexyl derivatives as IL-17 modulators” (UCB BIOPHARMA SRL, priority 2020, dated 2026):

Experiments:
[1] = molecular target: T1, interaction between IL-17A and soluble IL-17 Receptor A (IL-17RA) (Homo sapiens, UniProt Q16552); test: IL-17 FRET assay; settings: IL-17A binding to IL-17RA
T1 construct: made in house; host or cells: IL-17A-Fc: CHO SXE cells; IL-17RA: Expi HEK293 cells
T1 sequence (Q16552 24-155): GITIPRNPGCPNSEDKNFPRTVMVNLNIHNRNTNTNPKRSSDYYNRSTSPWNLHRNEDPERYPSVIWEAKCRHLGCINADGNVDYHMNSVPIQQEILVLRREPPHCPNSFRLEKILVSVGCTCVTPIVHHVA
Protocol: The purpose of this assay is to test the ability of compounds to disrupt the interaction between IL-17A and soluble IL-17 Receptor A (IL-17RA). The ability of a compound to inhibit IL-17A binding to IL-17RA is measured in this assay.
An IL-17AA-TEV-Human Fc construct was expressed in a CHO SXE cell system and purified by protein A chromatography and size exclusion. The protein was labelled with an amine reactive AlexaFluor 647 dye (Thermo Fisher #A20006), as per manufacturer's instruction.
Soluble IL-17RA (33-317)-HKH-TEV-Fc was expressed in an Expi HEK293 cell system and purified by protein A chromatography and size exclusion. The Fc tag was cleaved by TEV, producing IL-17RA (33-317)-HKH, and the protein was labelled with amine reactive terbium (Thermo Fisher #PV3581).
In assay buffer [Dulbecco's PBS (Sigma #14190-094), 0.05% P20 (Thermo Scientific #28320), 1 mg/mL BSA (Sigma #A2153-500G)] the following solutions were prepared:
• IL-17A-Fc-AF647 at 5 nM • IL-17RA-HKH-Tb at 5 nM
Compounds were serially diluted in DMSO before receiving an aqueous dilution into a 384 well dilution plate (Greiner #781281), to give a 25% DMSO solution.
IL-17A (10 μL) was added to a black low volume assay plate (Costar #4511) and diluted compound (5 μL) was transferred from the aqueous dilution plate. The cytokine and compound were allowed to incubate for 1 h, then IL-17RA (10 μL) was added. The plates were wrapped in foil and incubated at room temperature for 18-20 h with gentle shaking (<400 rpm) before being read on a Perkin Elmer Envision plate reader (Excitation: 330 nm; Emission 615/645 nm).
The final assay concentrations were IL-17A-AF647 2 nM and IL-17RA-Tb 2 nM, 5% DMSO.

[2] = tested on: IL-17 induced IL-6 release from human dermal fibroblasts; test: Inhibition of IL-17A induced IL-6 release from dermal fibroblast cell line (HDF cell line assay); assay type: cell-based
Protocol: Inhibition of IL-17A Induced IL-6 Release from Dermal Fibroblast Cell Line
The purpose of this assay is to test the neutralising ability to IL-17 proteins, in a human primary cell system.
The resultant IL-6 response was then measured using a homogenous time-resolved FRET kit from Cisbio. The kit utilises two monoclonal antibodies, one labelled with Eu-Cryptate (Donor) and the second with d2 or XL665 (Acceptor).
The ability of a compound to inhibit IL-17 induced IL-6 release from human dermal fibroblasts is measured in this assay.
The TrypLE was neutralised using complete medium (45 mL) and the cells were centrifuged at 300×g for 3 minutes. […] The cells were left for a minimum of three hours, at 37° C./5% CO2, to adhere to the plate.
10 μL from the aqueous dilution plate was transferred to the reagent plate containing 30 μL of the diluted cytokines, to give a 2.5% DMSO solution. The compounds were incubated with the cytokine mixtures for 1 h or 5 h at 37° C. After the incubation, 10 μL was transferred to the assay plate, to give a […] solution, then incubated for 18-20 h at 37° C./5% CO2.

SMILES: Cc1nonc1C(=O)N[C@H](c1nc2c(F)c(C(CC(F)F)C(=O)N3CC(F)(F)C3)ccc2[nH]1)C1CCC(F)(F)CC1 (mixture of isomers) [Example 3, N—[(S)-{5-[1-(3,3-Difluoroazetidine-1-carbonyl)-3,3-difluoropropyl]-4-fluoro-1H-benzimidazol-2-yl}(4,4-difluorocyclohexyl)methyl]-4-methyl-1,2,5-oxadiazole-3-carboxamide]
- IC50 [1]: 25.1 nM
- IC50 ([2]; Incubation Time 5 h): 25.1 nM

SMILES: CC(C(=O)N1CC(F)(F)C1)c1ccc2[nH]c([C@@H](NC(=O)c3ccnn3C)C3CCC(F)(F)CC3)nc2c1F (mixture of isomers) [Example 20, N—[(S)-{5-[2-(3,3-Difluoroazetidin-1-yl)-1-methyl-2-oxoethyl]-4-fluoro-1H-benzimidazol-2-yl}(4,4-difluorocyclohexyl)methyl]-2-methylpyrazole-3-carboxamide]
- IC50 [1]: 100 nM
- IC50 ([2]; Incubation Time 5 h): 20 nM

SMILES: COC(=O)N1CC[C@](C(=O)N2CC(F)(F)C(F)(F)C2)(c2ccc3[nH]c([C@@H](NC(=O)c4nonc4C)C4CCC(F)(F)CC4)nc3c2F)C1 (single isomer, unassigned) [Example 1]
- IC50 [1]: 39.8 nM
- IC50 ([2]; Incubation Time 5 h): 6.31 nM

SMILES: COC(=O)N1CC[C@@](C(=O)N2CC(F)(F)C(F)(F)C2)(c2ccc3[nH]c([C@@H](NC(=O)c4nonc4C)C4CCC(F)(F)CC4)nc3c2F)C1 (single isomer, unassigned) [Example 2]
- IC50 [1]: 39.8 nM
- IC50 ([2]; Incubation Time 5 h): 10 nM

SMILES: Cc1nonc1C(=O)N[C@H](c1nc2c(F)c([C@H](CC(F)F)C(=O)N3CC(F)(F)C3)ccc2[nH]1)C1CCC(F)(F)CC1 (single isomer, unassigned) [Example 4]
- IC50 [1]: 39.8 nM
- IC50 ([2]; Incubation Time 5 h): 15.8 nM

SMILES: Cc1nonc1C(=O)N[C@H](c1nc2c(F)c([C@@H](CC(F)F)C(=O)N3CC(F)(F)C3)ccc2[nH]1)C1CCC(F)(F)CC1 (single isomer, unassigned) [Example 5]
- IC50 [1]: 1580 nM
- IC50 ([2]; Incubation Time 1 h): 1260 nM

SMILES: C[C@H](C(=O)N1CC(F)(F)C1)c1ccc2[nH]c([C@@H](NC(=O)c3ccnn3C)C3CCC(F)(F)CC3)nc2c1F (single isomer, unassigned) [Example 21]
- IC50 [1]: 25.1 nM
- IC50 ([2]; Incubation Time 5 h): 15.8 nM

SMILES: C[C@@H](C(=O)N1CC(F)(F)C1)c1ccc2[nH]c([C@@H](NC(=O)c3ccnn3C)C3CCC(F)(F)CC3)nc2c1F (single isomer, unassigned) [Example 22]
- IC50 [1]: 316 nM
- IC50 ([2]; Incubation Time 5 h): 316 nM

SMILES: Cn1nccc1C(=O)N[C@H](c1nc2c(F)c(C(CC(F)F)C(=O)N3CC(F)(F)C3)ccc2[nH]1)C1CCC(F)(F)CC1 (stereo partly drawn) [Example 6, N—[(S)-{5-[1-(3,3-Difluoroazetidine-1-carbonyl)-3,3-difluoropropyl]-4-fluoro-1H-benzimidazol-2-yl}(4,4-difluorocyclohexyl)methyl]-2-methylpyrazole-3-carboxamide]
- IC50 [1]: 79.4 nM
- IC50 ([2]; Incubation Time 5 h): 25.1 nM

SMILES: Cc1nonc1C(=O)N[C@H](c1nc2c(F)c(C(CC(F)(F)F)C(=O)N3CC(F)(F)C3)ccc2[nH]1)C1CCC(F)(F)CC1 (stereo partly drawn) [Example 7, N—[(S)-{5-[1-(3,3-Difluoroazetidine-1-carbonyl)-3,3,3-trifluoropropyl]-4-fluoro-1H-benzimidazol-2-yl}(4,4-difluorocyclohexyl)methyl]-4-methyl-1,2,5-oxadiazole-3-carboxamide]
- IC50 [1]: 15.8 nM
- IC50 ([2]; Incubation Time 5 h): 15.8 nM

SMILES: Cn1nccc1C(=O)N[C@H](c1nc2c(F)c(C(CC(F)(F)F)C(=O)N3CC(F)(F)C3)ccc2[nH]1)C1CCC(F)(F)CC1 (stereo partly drawn) [Example 8, N—[(S)-{5-[1-(3,3-Difluoroazetidine-1-carbonyl)-3,3,3-trifluoropropyl]-4-fluoro-1H-benzimidazol-2-yl}(4,4-difluorocyclohexyl)methyl]-2-methylpyrazole-3-carboxamide]
- IC50 [1]: 100 nM
- IC50 ([2]; Incubation Time 5 h): 25.1 nM

SMILES: Cc1nonc1C(=O)N[C@H](c1nc2c(F)c(C3(C(=O)N4CC(F)(F)C4)CCNCC3)ccc2[nH]1)C1CCC(F)(F)CC1 [Example 16, N—[(S)-{5-[4-(3,3-Difluoroazetidine-1-carbonyl)piperidin-4-yl]-4-fluoro-1H-benzimidazol-2-yl}(4,4-difluorocyclohexyl)methyl]-4-methyl-1,2,5-oxadiazole-3-carboxamide]
- IC50 [1]: 126 nM
- IC50 ([2]; Incubation Time 5 h): 79.4 nM

SMILES: COC(=O)N1CCC(C(=O)N2CC(F)(F)C2)(c2ccc3[nH]c([C@@H](NC(=O)c4nonc4C)C4CCC(F)(F)CC4)nc3c2F)CC1 [Example 17, Methyl 4-(3,3-difluoroazetidine-1-carbonyl)-4-(2-{(S)-(4,4-difluorocyclohexyl)[(4-methyl-1,2,5-oxadiazole-3-carbonyl)amino]methyl}-4-fluoro-1H-benzimidazol-5-yl)-piperidine-1-carboxylate]
- IC50 [1]: 50.1 nM
- IC50 ([2]; Incubation Time 5 h): 12.6 nM

SMILES: [2H]C([2H])([2H])n1nccc1C(=O)N[C@H](c1nc2c(F)c(C3(C(=O)N4CC(F)(F)C4)CC(F)(F)C3)ccc2[nH]1)C1CCC(F)(F)CC1 [Example 18, N—[(S)-{5-[1-(3,3-Difluoroazetidine-1-carbonyl)-3,3-difluorocyclobutyl]-4-fluoro-1H-benzimidazol-2-yl}(4,4-difluorocyclohexyl)methyl]-2-(trideuteriomethyl)pyrazole-3-carboxamide]
- IC50 [1]: 158 nM
- IC50 ([2]; Incubation Time 1 h): 79.4 nM

SMILES: Cc1nonc1C(=O)N[C@H](c1nc2c(F)c(C3(C(=O)N4CC(F)(F)C(F)(F)C4)CCOCC3)ccc2[nH]1)C1CCC(F)(F)CC1 [Example 19, N—[(S)-(4,4-Difluorocyclohexyl){4-fluoro-5-[4-(3,3,4,4-tetrafluoropyrrolidine-1-carbonyl)tetrahydropyran-4-yl]-1H-benzimidazol-2-yl}methyl]-4-methyl-1,2,5-oxadiazole-3-carboxamide]
- IC50 [1]: 12.6 nM
- IC50 ([2]; Incubation Time 5 h): 3.98 nM

SMILES: Cc1nonc1C(=O)N[C@H](c1nc2c(F)c(C3(C(=O)N4CC(F)(F)C4)CCC(F)(F)CC3)ccc2[nH]1)C1CCC(F)(F)CC1 [Example 23, N—[(S)-{5-[1-(3,3-Difluoroazetidine-1-carbonyl)-4,4-difluorocyclohexyl]-4-fluoro-1H-benzimidazol-2-yl}(4,4-difluorocyclohexyl)methyl]-4-methyl-1,2,5-oxadiazole-3-carboxamide]
- IC50 [1]: 20 nM
- IC50 ([2]; Incubation Time 5 h): 10 nM

SMILES: Cc1nonc1C(=O)N[C@H](c1nc2nc(C3(C(=O)NCC4CC4(F)F)CCOCC3)ccc2[nH]1)C1CCC(F)(F)CC1 (stereo partly drawn) [Example 24, N—[(S)-(4,4-Difluorocyclohexyl)(5-{4-[(2,2-difluorocyclopropyl)methylcarbamoyl]-tetrahydropyran-4-yl}-1H-imidazo[4,5-b]pyridin-2-yl)methyl]-4-methyl-1,2,5-oxadiazole-3-carboxamide]
- IC50 [1]: 25.1 nM
- IC50 ([2]; Incubation Time 5 h): 6.31 nM

SMILES: CC(C)n1ncnc1C(=O)N[C@H](c1nc2c(F)c([C@H](CC(F)F)C(=O)NCC(F)(F)F)ccc2[nH]1)C1CCC(F)(F)CC1 [Example 80, N—[(S)-(4,4-Difluorocyclohexyl){5-[(1S)-3,3-difluoro-1-(2,2,2-trifluoroethylcarbamoyl)-propyl]-4-fluoro-1H-benzimidazol-2-yl}methyl]-2-isopropyl-1,2,4-triazole-3-carboxamide]
- IC50 ([2]; Incubation Time 5 h): 6.31 nM

SMILES: O=C(NCC(F)(F)F)[C@@H](CC(F)F)c1ccc2[nH]c([C@@H](NC(=O)C3(F)CC3)C3CCC(F)(F)CC3)nc2c1F [Example 81, N—[(S)-(4,4-Difluorocyclohexyl){5-[(1S)-3,3-difluoro-1-(2,2,2-trifluoroethylcarbamoyl)-propyl]-4-fluoro-1H-benzimidazol-2-yl}methyl]-1-fluorocyclopropanecarboxamide]
- IC50 ([2]; Incubation Time 5 h): 31.6 nM
